Results on seven compounds are retold here after ChEMBL document CHEMBL1143687, “Synthesis of analogues of a flexible thiopyrylium photosensitizer for purging blood-borne pathogens and binding mode and affinity studies of their complexes with DNA” (Bioorg Med Chem, 2007).

Each structure is given as a SMILES string.

The subject of one series is Escherichia coli. Description: Binding affinity to pUC19 DNA assessed as drug concentration to induce plasmid re-supercoiling by topoisomerase 1 DNA unwinding assay.
The nature of series [1]: Partition coefficient, log P by shake flask method. The series is classed as physicochemical. As to conditions: octanol/water.
The test system of series [2] is DNA. In words: Binding affinity to calf thymus DNA by isothermal titration calorimetry. It is filed as nucleic-acid assay. As to conditions: Bos taurus. For orientation: ITC needs no label: the signal is the heat of the interaction.
The subject of series [3] is DNA. In words: Binding affinity to calf thymus DNA by spectrophotometric titration method. The series is classed as nucleic-acid assay. As to conditions: Bos taurus.
Series [4] is described as follows: Binding affinity to M13mp19 DNA by spectrophotometric titration method.

Consider `CCCc1cc(-c2ccc(N(C)C)cc2)cc(-c2ccc(N(C)C)cc2)[s+]1`, for which the Kb is 45 10^6/M with Escherichia coli, 2.4 10^5/M with DNA [2], 5 10^4/M in the series with DNA [3] and 3.47 10^4/M in series [4]. The logP (commonly the decadic logarithm of the partition coefficient of the neutral form, usually between octanol and water) in series [1] worked out at 0.82.

In series [1], `CC(C)c1cc(-c2ccc(N(C)C)cc2)cc(-c2ccc(N(C)C)cc2)[s+]1` came in with a logP of 0.23. In addition, in series [4], the Kb is 1.17 10^4/M.

Turning to `CN(C)c1ccc(-c2cc(-c3ccc(N(C)C)cc3)[se+]c(C(C)(C)C)c2)cc1`, the Kb was 22 10^6/M with Escherichia coli, 3.9 10^5/M in the series on DNA [2], 8.7 10^4/M in the series on DNA [3] and 2.5 10^4/M in series [4]. Moreover, the log partition coefficient (logP) in series [1] stood at 1.57.

`CCc1cc(-c2ccc(N(C)C)cc2)cc(-c2ccc(N(C)C)cc2)[s+]1`: the lipophilicity (logP) in series [1] stood at 0.13. Also, the Kb in series [4] was 1.8 10^4/M.

Turning to `CCCCc1cc(-c2ccc(N(C)C)cc2)cc(-c2ccc(N(C)C)cc2)[s+]1`, the logP in series [1] amounted to 1.63. Besides, in series [4], the Kb was 7.58 10^4/M.

In the case of `CN(C)c1ccc(-c2cc(-c3ccc(N(C)C)cc3)[s+]c(C(C)(C)C)c2)cc1`, the Kb was 23 10^6/M with Escherichia coli, 4.2 10^5/M in the series on DNA [2], 10.1 10^4/M with DNA [3] and 0.91 10^4/M in series [4]. For the same compound, the logP in series [1] turned out to be 1.51.

As for `Cc1cc(-c2ccc(N(C)C)cc2)cc(-c2ccc(N(C)C)cc2)[s+]1`, the Kb is 66 10^6/M in the series on Escherichia coli, 1.7 10^5/M in the series on DNA [2], 5.2 10^4/M in the series with DNA [3] and 6.1 10^4/M in series [4]. This compound also gave a logP in series [1] of 0.6.
